The subject of one series is Mus musculus. Kind of series: Inhibition of peribronchial eosinophilia in BALB/c mouse at 30 mg/kg, po relative to control. In kind it is functional.
The target in series [1] is Sodium-dependent serotonin transporter (Homo sapiens) (UniProt P31645). Kind of series: Inhibition of human 5-HT transporter at 10 uM.
Series [2] concerns the target Nociceptin receptor (Homo sapiens) (UniProt P41146). Kind of series: Inhibition of human ORL1 at 10 uM.
The target in series [3] is T1, GABA-A receptor; anion channel (Homo sapiens) (UniProt P14867+P47870+P18507+P28472+P48169+Q99928+Q9UN88+P34903+O00591+O14764+Q8N1C3+P18505+P78334+P47869+P31644+Q16445). Kind of series: Inhibition of human GABA receptor at 10 uM. Type of series: protein-complex assay.
For series [4], the target named is Adenosine receptor A1 (Homo sapiens) (UniProt P30542). Kind of series: Inhibition of human A1 receptor at 10 uM.
Chain of Adenosine receptor A1 (Homo sapiens) (P30542 whole entry): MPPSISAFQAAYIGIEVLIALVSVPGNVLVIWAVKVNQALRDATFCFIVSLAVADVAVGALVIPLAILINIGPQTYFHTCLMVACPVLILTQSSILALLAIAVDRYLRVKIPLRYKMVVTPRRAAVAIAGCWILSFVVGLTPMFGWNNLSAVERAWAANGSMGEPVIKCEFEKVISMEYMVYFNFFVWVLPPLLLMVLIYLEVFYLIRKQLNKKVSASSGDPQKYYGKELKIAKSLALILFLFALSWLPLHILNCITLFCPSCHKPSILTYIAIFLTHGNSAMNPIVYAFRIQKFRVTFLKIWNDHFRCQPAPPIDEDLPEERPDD
The target in series [5] is Cysteinyl leukotriene receptor 1 (Homo sapiens) (UniProt Q9Y271). Kind of series: Inhibition of human LTD4 receptor at 10 uM.
Chain of Cysteinyl leukotriene receptor 1 (Homo sapiens) (Q9Y271 whole entry): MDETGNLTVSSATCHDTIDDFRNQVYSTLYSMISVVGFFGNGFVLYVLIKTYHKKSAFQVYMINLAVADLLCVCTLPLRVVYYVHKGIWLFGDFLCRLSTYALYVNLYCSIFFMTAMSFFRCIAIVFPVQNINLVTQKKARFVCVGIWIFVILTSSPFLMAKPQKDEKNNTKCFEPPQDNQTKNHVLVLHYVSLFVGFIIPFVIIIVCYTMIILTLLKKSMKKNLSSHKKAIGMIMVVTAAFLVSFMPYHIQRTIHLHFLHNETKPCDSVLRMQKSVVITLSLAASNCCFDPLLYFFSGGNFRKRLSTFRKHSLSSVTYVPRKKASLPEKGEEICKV
The target in series [6] is Adrenergic receptor alpha-1 (Homo sapiens) (UniProt P35348+P25100+P35368). Kind of series: Inhibition of alpha1 receptor at 10 uM. Type of series: protein assay.
The target in series [7] is Histamine H2 receptor (Homo sapiens) (UniProt P25021). Kind of series: Inhibition of human H2 receptor at 10 uM.
Chain of Histamine H2 receptor (Homo sapiens) (P25021 whole entry): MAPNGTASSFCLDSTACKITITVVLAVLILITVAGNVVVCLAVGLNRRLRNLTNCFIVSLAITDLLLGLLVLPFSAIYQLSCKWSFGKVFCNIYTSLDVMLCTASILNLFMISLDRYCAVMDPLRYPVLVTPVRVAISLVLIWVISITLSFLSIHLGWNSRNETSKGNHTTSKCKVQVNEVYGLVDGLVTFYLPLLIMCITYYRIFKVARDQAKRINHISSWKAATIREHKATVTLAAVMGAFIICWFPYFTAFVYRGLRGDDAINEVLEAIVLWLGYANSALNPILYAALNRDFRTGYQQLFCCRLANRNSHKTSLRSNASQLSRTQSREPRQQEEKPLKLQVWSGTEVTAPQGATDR
A short description of series [8]: Permeability from apical to basolateral side of Caco-2 cells. Type of series: ADME, cell-based. The note with it: human, read-out: permeability.
Series [9] addresses Prostaglandin D2 receptor (Homo sapiens) (UniProt Q13258). Kind of series: Inhibition of human DP receptor at 10 uM.
For series [10], the target named is Somatostatin receptor (Homo sapiens) (UniProt P35346+P30874+P31391+P30872+P32745). Kind of series: Inhibition of sst receptor at 10 uM. In kind it is protein assay.
Series [11] addresses Prostaglandin D2 receptor (Homo sapiens, UniProt Q13258). Kind of series: Inhibition of DP1.
In series [12] the target is Endothelin-1 receptor (Homo sapiens) (UniProt P25101). Kind of series: Inhibition of human ETA receptor at 10 uM.
Chain of Endothelin-1 receptor (Homo sapiens) (P25101 whole entry): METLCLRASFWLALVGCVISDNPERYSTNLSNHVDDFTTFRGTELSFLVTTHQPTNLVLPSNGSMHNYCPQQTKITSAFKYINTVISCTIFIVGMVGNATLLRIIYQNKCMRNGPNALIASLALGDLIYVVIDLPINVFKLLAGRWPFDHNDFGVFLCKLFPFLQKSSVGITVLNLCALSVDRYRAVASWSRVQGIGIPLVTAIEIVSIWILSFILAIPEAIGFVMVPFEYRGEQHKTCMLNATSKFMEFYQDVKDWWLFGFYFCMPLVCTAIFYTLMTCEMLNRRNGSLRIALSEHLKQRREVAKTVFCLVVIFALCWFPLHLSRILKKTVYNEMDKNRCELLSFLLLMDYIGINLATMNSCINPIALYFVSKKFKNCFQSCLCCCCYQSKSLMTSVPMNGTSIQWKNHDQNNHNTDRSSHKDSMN
For series [13], the target named is Beta-1 adrenergic receptor (Homo sapiens) (UniProt P08588). Kind of series: Inhibition of human beta-1 receptor at 10 uM.
Chain of Beta-1 adrenergic receptor (Homo sapiens) (P08588 whole entry, looked up): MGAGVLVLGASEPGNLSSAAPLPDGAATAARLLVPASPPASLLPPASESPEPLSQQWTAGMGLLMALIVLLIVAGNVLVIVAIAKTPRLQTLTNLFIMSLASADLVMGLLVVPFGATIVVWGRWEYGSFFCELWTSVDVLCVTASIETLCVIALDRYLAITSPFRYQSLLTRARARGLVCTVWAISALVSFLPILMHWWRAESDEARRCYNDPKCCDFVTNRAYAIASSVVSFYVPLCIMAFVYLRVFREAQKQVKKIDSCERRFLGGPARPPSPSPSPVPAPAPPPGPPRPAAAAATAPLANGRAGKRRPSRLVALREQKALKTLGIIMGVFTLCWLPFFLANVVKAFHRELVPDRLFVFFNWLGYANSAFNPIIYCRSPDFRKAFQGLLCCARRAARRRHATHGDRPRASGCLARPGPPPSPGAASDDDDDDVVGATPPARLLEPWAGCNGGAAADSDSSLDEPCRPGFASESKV
Series [14] addresses Polyunsaturated fatty acid lipoxygenase ALOX12 (Homo sapiens) (UniProt P18054). Kind of series: Inhibition of 12-LO at 10 uM.
Series [15] has as its target Adenosine receptor A2a (Homo sapiens) (UniProt P29274). Kind of series: Inhibition of human A2A receptor at 10 uM.
In series [16] the target is Prostaglandin G/H synthase 2 (Homo sapiens) (UniProt P35354). Kind of series: Inhibition of COX2 at 10 uM.
Chain of Prostaglandin G/H synthase 2 (Homo sapiens) (P35354 whole entry): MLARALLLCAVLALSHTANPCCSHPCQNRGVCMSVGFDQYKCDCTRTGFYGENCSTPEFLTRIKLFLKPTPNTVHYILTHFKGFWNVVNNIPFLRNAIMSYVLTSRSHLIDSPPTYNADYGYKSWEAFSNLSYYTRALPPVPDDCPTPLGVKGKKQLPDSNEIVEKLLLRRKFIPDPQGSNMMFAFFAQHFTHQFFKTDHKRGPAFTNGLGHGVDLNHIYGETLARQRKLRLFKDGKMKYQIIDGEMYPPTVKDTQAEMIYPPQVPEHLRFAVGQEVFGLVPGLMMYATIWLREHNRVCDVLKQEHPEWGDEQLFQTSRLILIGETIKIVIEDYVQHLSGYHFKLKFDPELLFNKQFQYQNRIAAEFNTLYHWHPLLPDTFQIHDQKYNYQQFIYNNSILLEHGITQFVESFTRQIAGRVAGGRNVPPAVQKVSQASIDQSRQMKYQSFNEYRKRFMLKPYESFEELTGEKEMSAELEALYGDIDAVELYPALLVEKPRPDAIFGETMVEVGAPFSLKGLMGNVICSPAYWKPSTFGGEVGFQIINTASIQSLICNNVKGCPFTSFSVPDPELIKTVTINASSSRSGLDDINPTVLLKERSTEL
Series [17] concerns the target B2 bradykinin receptor (Homo sapiens) (UniProt P30411). Kind of series: Inhibition of human B2 receptor at 10 uM.
Series [18] has as its target Thromboxane A2 receptor (Homo sapiens) (UniProt P21731). Kind of series: Inhibition of human TXA2 receptor at 10 uM.
In series [19] the target is T1, GABA-A receptor; anion channel (Homo sapiens). Kind of series: Inhibition of central BZD receptor at 10 uM. Type of series: protein-complex assay.
The nature of series [20]: Bioavailability in rat. In kind it is ADME, organism-based. The note with it: in vivo.

One may read the inhibition in vivo as the relative decrease from the control value, in per cent. A high value points to a strong effect. What is called inhibition is the share of the control response that was lost under treatment. Lower therefore signals a response near the control. As usually defined, the IC50 is the concentration at which inhibition is half-maximal. Read a low IC50 as greater potency in that assay. Usually bioavailability stands for dose-corrected exposure relative to a reference, in per cent. Read a low bioavailability as little systemic uptake.

The structures appear in SMILES notation.

Chain of Polyunsaturated fatty acid lipoxygenase ALOX12 (Homo sapiens) (P18054 whole entry): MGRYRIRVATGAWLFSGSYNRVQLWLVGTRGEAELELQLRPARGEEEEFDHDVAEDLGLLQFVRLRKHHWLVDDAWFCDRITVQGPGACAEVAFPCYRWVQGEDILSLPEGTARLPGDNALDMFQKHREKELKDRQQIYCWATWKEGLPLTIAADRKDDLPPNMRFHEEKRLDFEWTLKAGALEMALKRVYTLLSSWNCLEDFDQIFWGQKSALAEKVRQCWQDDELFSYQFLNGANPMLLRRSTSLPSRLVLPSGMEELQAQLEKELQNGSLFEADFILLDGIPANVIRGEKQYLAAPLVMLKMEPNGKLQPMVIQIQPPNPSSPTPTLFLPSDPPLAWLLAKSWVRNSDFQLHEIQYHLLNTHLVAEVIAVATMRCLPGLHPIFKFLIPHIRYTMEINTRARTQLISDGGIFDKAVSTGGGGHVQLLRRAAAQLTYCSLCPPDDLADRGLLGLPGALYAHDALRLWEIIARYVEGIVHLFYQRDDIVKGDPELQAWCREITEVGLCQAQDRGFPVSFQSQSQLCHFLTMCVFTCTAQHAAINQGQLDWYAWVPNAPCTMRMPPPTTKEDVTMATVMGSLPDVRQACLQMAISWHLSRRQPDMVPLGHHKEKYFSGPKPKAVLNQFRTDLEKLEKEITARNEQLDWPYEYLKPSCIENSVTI
Chain of Nociceptin receptor (Homo sapiens) (P41146 whole entry): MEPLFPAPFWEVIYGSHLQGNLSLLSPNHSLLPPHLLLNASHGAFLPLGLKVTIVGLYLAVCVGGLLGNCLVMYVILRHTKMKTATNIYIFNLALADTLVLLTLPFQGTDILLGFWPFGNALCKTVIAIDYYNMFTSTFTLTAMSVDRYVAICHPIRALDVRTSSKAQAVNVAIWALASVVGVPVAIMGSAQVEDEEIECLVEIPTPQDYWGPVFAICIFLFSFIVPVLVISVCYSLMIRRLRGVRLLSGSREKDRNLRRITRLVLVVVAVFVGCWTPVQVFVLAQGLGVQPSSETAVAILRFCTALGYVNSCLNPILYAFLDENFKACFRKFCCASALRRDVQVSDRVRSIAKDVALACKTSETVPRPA
Chain of Prostaglandin D2 receptor (Q13258 whole entry): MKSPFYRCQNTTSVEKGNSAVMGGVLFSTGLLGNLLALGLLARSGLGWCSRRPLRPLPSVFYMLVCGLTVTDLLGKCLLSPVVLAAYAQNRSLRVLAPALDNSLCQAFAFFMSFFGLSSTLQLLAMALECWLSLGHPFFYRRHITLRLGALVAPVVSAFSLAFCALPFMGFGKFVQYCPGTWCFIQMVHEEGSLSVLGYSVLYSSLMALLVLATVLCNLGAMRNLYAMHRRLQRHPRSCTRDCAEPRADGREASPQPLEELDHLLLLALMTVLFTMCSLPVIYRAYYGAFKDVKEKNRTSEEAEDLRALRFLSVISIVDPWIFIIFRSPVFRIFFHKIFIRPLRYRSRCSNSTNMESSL
Chain of Prostaglandin D2 receptor (Homo sapiens) (Q13258 whole entry): as above
Chain of Adenosine receptor A2a (Homo sapiens) (P29274 whole entry): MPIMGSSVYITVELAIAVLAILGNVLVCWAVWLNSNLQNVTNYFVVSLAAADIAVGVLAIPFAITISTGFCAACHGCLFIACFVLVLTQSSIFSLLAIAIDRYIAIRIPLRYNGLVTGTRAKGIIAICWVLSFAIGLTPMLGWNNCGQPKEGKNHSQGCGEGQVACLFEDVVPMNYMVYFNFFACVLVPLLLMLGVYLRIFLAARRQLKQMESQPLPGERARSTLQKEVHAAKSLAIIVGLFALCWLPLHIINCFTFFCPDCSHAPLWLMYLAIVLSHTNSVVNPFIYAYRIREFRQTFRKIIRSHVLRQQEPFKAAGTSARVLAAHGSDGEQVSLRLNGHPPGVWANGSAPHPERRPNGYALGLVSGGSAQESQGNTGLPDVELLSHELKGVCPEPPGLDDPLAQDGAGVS
Chain of Thromboxane A2 receptor (Homo sapiens) (P21731 whole entry): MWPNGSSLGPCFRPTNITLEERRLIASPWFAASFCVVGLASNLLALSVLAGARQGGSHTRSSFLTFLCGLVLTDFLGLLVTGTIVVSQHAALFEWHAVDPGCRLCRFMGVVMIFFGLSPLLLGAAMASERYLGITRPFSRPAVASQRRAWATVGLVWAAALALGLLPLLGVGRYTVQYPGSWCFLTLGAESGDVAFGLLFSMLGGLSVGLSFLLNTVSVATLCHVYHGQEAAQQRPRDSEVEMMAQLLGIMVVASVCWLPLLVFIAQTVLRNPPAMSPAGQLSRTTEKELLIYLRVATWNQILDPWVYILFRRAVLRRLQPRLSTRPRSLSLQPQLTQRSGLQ

`O=C(O)COc1ccc(Br)cc1C(=O)c1cnn(-c2ccccc2)c1`: in the series on Mus musculus, the inhibition in vivo at 30 mg/kg was found to be 62%. For the same compound, the inhibition in [1], in [2], in series [3], in [4], in series [5] and in series [6] was less than 30% throughout. Besides, the inhibition in series [7] was less than 30%; in [9], less than 30%; in [10], less than 30%; in [12], less than 30%; in [13], less than 30%; in series [14], less than 20%. Also, the inhibition was less than 30% in series [15]; less than 20% in [16]; less than 30% in series [17]; less than 30% in series [18]; less than 30% in [19]. The Papp A→B in series [8] was 8.7 ×10⁻⁶ cm/s. Further, in series [11], the IC50 is greater than 100 µM. Also, the bioavailability in series [20] came to 84%.
